Target: T1, Lactobacillus reuteri 121 inulosucrase (LrInu; InuΔ699His) (Limosilactobacillus reuteri, UniProt Q8GP32)
T1 sequence (Q8GP32 37-699 limits assumed): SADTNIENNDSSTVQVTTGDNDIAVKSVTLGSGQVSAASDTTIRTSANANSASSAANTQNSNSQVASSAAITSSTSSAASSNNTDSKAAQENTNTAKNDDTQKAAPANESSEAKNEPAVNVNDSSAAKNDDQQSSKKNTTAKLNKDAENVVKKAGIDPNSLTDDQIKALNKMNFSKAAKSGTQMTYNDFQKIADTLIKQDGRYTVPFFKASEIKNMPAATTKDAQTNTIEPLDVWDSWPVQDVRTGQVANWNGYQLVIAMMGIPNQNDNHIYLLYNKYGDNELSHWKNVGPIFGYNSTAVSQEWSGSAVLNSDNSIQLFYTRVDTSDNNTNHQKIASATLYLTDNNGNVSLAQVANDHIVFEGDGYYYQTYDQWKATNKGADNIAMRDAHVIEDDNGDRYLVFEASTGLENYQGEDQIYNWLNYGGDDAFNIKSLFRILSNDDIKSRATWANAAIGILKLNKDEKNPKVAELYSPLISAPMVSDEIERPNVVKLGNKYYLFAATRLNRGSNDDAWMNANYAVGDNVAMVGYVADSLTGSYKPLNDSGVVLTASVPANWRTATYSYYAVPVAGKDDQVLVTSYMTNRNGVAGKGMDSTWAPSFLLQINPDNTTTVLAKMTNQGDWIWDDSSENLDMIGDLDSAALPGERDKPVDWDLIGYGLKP
Assay: FOS synthesis, TLC / HPLC / MALDI-TOF MS
Assay type: biochemical
Settings: 0.5 M sucrose, 5 U/mL enzyme, 50 mM acetate pH 5.5, 30 °C, 24 h

OC[C@H]1O[C@@](CO)(O[C@H]2O[C@H](CO)[C@@H](O)[C@H](O)[C@H]2O)[C@@H](O)[C@@H]1O [sucrose]
FOS synthesis, TLC / HPLC / MALDI-TOF MS: transglycosylation products of R483A, R483F, R483Y and R483W
